Source: US20230271950A1, “ANTIBACTERIAL PICOLINAMIDE COMPOUNDS” (University of Notre Dame Du Lac, priority 2020, published 2023)
In brackets after ≈: the same amount, converted by molar mass. Where two headings read alike, the source gives them in different places.

What was measured:
[1] = system: C. difficile; assay: MIC by broth microdilution against C. difficile strains; assay type: cell-based, Clostridioides difficile; conditions: for MIC: Table 9, read-out: MIC
[2] = system: MRSA (NRS70, NRS119); assay: MIC against MRSA strains; assay type: cell-based, Staphylococcus aureus; conditions: Staphylococcus aureus, read-out: MIC
[3] = system: S. aureus ATCC29213; assay: MIC against MSSA; assay type: cell-based, Staphylococcus aureus; conditions: Staphylococcus aureus; S. aureus ATCC29213; Table 1; read-out: MIC
[4] = system: E. faecium NCTC7171; assay: MIC against E. faecium; assay type: cell-based, Enterococcus faecium; conditions: Enterococcus faecium; E. faecium NCTC7171; Table 1; read-out: MIC
[5] = system: Bacteroides fragilis; assay: MIC against gut bacterium Bacteroides fragilis; assay type: cell-based; conditions: Bacteroides fragilis, Bacteroides fragilis strain HM-709, read-out: MIC
[6] = system: Bifidobacterium longum; assay: MIC against gut bacterium Bifidobacterium longum; assay type: cell-based; conditions: Bifidobacterium longum, Bifidobacterium longum strain HM-846, read-out: MIC
[7] = system: Corynebacterium spp.; assay: MIC against gut bacterium Corynebacterium spp.; assay type: cell-based; conditions: Corynebacterium, Corynebacterium spp. strain HM-784
[8] = system: Fusobacterium nucleatum; assay: MIC against gut bacterium Fusobacterium nucleatum; assay type: cell-based; conditions: Fusobacterium nucleatum, Fusobacterium nucleatum strain HM-992, read-out: MIC
[9] = system: Lactobacillus reuteri; assay: MIC against gut bacterium Lactobacillus reuteri; assay type: cell-based
[10] = system: Lactobacillus gasseri; assay: MIC against gut bacterium Lactobacillus gasseri; assay type: cell-based
[11] = system: Veillonella sp. HM-49; assay: MIC against gut bacterium Veillonella sp.; assay type: cell-based
[12] = system: Eubacterium sp.; assay: MIC against gut bacterium Eubacterium sp.; assay type: cell-based; conditions: Eubacterium, Eubacterium sp. strain HM-178, read-out: MIC

What does the source list for `CCc1c(Cl)c(O)c(Cl)c(O)c1C(=O)O[C@H]1[C@H](O)[C@H](OC)[C@H](OC/C2=C\C=C\C[C@H](O)/C(C)=C/[C@H](CC)[C@@H](O[C@@H]3OC(C)(C)[C@@H](OC(=O)C(C)C)[C@H](O)[C@@H]3O)/C(C)=C/C(C)=C/C[C@@H]([C@@H](C)O)OC2=O)O[C@@H]1C` [FDX, fidaxomicin, reference compound]?
MIC ([1]; Clostridioides difficile, C. difficile NR-32882): 0.06 µg/mL (≈ 0.0567 µM); MIC ([1]; Clostridioides difficile, C. difficile NR-32884): 0.03 µg/mL (≈ 0.0284 µM); MIC ([1]; Clostridioides difficile, C. difficile NR-32885): 0.25 µg/mL (≈ 0.236 µM); MIC ([1]; Clostridioides difficile, C. difficile NR-32886): 0.03 µg/mL (≈ 0.0284 µM); MIC ([1]; Clostridioides difficile, C. difficile NR-32888): 0.03 µg/mL (≈ 0.0284 µM); MIC ([1]; Clostridioides difficile, C. difficile NR-32889): 0.25 µg/mL (≈ 0.236 µM); MIC ([1]; Clostridioides difficile, C. difficile NR-32890): 0.06 µg/mL (≈ 0.0567 µM); MIC ([1]; Clostridioides difficile, C. difficile NR-32891): 0.03 µg/mL (≈ 0.0284 µM); MIC ([1]; Clostridioides difficile, C. difficile NR-32892): 0.03 µg/mL (≈ 0.0284 µM); MIC ([1]; Clostridioides difficile, C. difficile NR-32895): 0.03 µg/mL (≈ 0.0284 µM); MIC ([1]; Clostridioides difficile, C. difficile NR-32896): 0.03 µg/mL (≈ 0.0284 µM); MIC ([1]; Clostridioides difficile, C. difficile NR-32897): 0.03 µg/mL (≈ 0.0284 µM); MIC ([1]; Clostridioides difficile, C. difficile NR-32900): 0.03 µg/mL (≈ 0.0284 µM); MIC ([1]; Clostridioides difficile, C. difficile NR-32903): 0.03 µg/mL (≈ 0.0284 µM); MIC ([1]; Clostridioides difficile, C. difficile NR-32904): 0.03 µg/mL (≈ 0.0284 µM); MIC ([1]; Clostridioides difficile, C. difficile NR-49277): 0.06 µg/mL (≈ 0.0567 µM); MIC ([1]; Clostridioides difficile, C. difficile NR-49278): 0.25 µg/mL (≈ 0.236 µM); MIC ([1]; Clostridioides difficile, C. difficile NR-49279): 0.25 µg/mL (≈ 0.236 µM); MIC ([1]; Clostridioides difficile, C. difficile NR-49281): 0.25 µg/mL (≈ 0.236 µM); MIC ([1]; Clostridioides difficile, C. difficile NR-49282): 0.06 µg/mL (≈ 0.0567 µM); MIC ([1]; Clostridioides difficile, C. difficile NR-49283): 0.03 µg/mL (≈ 0.0284 µM); MIC ([1]; Clostridioides difficile, C. difficile NR-49284): 0.06 µg/mL (≈ 0.0567 µM); MIC ([1]; Clostridioides difficile, C. difficile NR-49285): 0.06 µg/mL (≈ 0.0567 µM); MIC ([1]; Clostridioides difficile, C. difficile NR-49286): 0.25 µg/mL (≈ 0.236 µM); MIC ([1]; Clostridioides difficile, C. difficile NR-49287): 0.25 µg/mL (≈ 0.236 µM); MIC ([1]; Clostridioides difficile, C. difficile NR-49288): 0.25 µg/mL (≈ 0.236 µM); MIC ([1]; Clostridioides difficile, C. difficile NR-49289): 0.03 µg/mL (≈ 0.0284 µM); MIC ([1]; Clostridioides difficile, C. difficile NR-49290): 0.06 µg/mL (≈ 0.0567 µM); MIC ([1]; Clostridioides difficile, C. difficile NR-49291): 0.25 µg/mL (≈ 0.236 µM); MIC ([1]; Clostridioides difficile, C. difficile NR-49293): ≤ 0.03 µg/mL; MIC ([1]; Clostridioides difficile, C. difficile NR-49295): ≤ 0.03 µg/mL; MIC ([1]; Clostridioides difficile, C. difficile NR-49296): ≤ 0.03 µg/mL; MIC ([1]; Clostridioides difficile, C. difficile NR-49297): 0.0125 µg/mL (≈ 0.0118 µM); MIC ([1]; Clostridioides difficile, C. difficile NR-49300): 0.03 µg/mL (≈ 0.0284 µM); MIC ([1]; Clostridioides difficile, C. difficile NR-49301): 0.03 µg/mL (≈ 0.0284 µM); MIC ([1]; Clostridioides difficile, C. difficile NR-49303): 0.03 µg/mL (≈ 0.0284 µM); MIC ([1]; Clostridioides difficile, C. difficile NR-49304): 0.06 µg/mL (≈ 0.0567 µM); MIC ([1]; Clostridioides difficile, C. difficile NR-49306): 0.03 µg/mL (≈ 0.0284 µM); MIC ([1]; Clostridioides difficile, C. difficile NR-49307): 0.03 µg/mL (≈ 0.0284 µM); MIC ([1]; Clostridioides difficile, C. difficile NR-49309): 0.03 µg/mL (≈ 0.0284 µM); MIC ([1]; Clostridioides difficile, C. difficile NR-49311): 0.03 µg/mL (≈ 0.0284 µM); MIC ([1]; Clostridioides difficile, C. difficile NR-49313): 0.03 µg/mL (≈ 0.0284 µM); MIC ([1]; Clostridioides difficile, C. difficile NR-49314): 0.25 µg/mL (≈ 0.236 µM); MIC ([1]; Clostridioides difficile, C. difficile NR-49315): 0.06 µg/mL (≈ 0.0567 µM); MIC ([1]; Clostridioides difficile, C. difficile NR-49317): 0.06 µg/mL (≈ 0.0567 µM); MIC ([1]; Clostridioides difficile, C. difficile NR-49323): ≤ 0.03 µg/mL; MIC ([1]; Clostridioides difficile, C. difficile NR-49324): 0.06 µg/mL (≈ 0.0567 µM); MIC ([1]; Clostridioides difficile, C. difficile NR-49325): 0.03 µg/mL (≈ 0.0284 µM); MIC ([1]; Clostridioides difficile, C. difficile NR-49326): 0.03 µg/mL (≈ 0.0284 µM); MIC ([1]; Clostridioides difficile, C. difficile NR-49327): 0.03 µg/mL (≈ 0.0284 µM); MIC ([1]; Clostridioides difficile, C. difficile NR-49328): 0.03 µg/mL (≈ 0.0284 µM); MIC ([1]; Clostridioides difficile, C. difficile NR-49329): 0.03 µg/mL (≈ 0.0284 µM); MIC50 ([1]; Clostridioides difficile, 101 C. difficile strains): 0.06 µg/mL (≈ 0.0567 µM); MIC90 ([1]; Clostridioides difficile, 101 C. difficile strains, read-out: MIC90 (101 strains)): 0.25 µg/mL (≈ 0.236 µM); Selectivity ([1]; MIC MRSA NRS70/MIC C. difficile ATCC43255, Table 7): 128; MIC ([2]; MRSA NRS70, Table 1): 8 µg/mL (≈ 7.56 µM); MIC ([2]; MRSA NRS70, Table 7): 8 µg/mL (≈ 7.56 µM); MIC ([2]; MRSA NRS119, Table 1): 2 µg/mL (≈ 1.89 µM); MIC [3]: 8 µg/mL (≈ 7.56 µM); MIC [4]: 2 µg/mL (≈ 1.89 µM); MIC ([5]; Table 1): > 32 µg/mL; MIC ([5]; Table 7): > 32 µg/mL; MIC ([6]; Table 1): < 0.01 µg/mL; MIC ([6]; Table 7): < 0.01 µg/mL; MIC ([7]; Table 1): < 0.06 µg/mL; MIC ([7]; Table 7): < 0.0625 µg/mL; MIC ([8]; Table 1): < 0.06 µg/mL; MIC ([8]; Table 7): < 0.0625 µg/mL; MIC ([9]; Lactobacillus reuteri strain HM-102, Table 7): >32 µg/mL; MIC ([9]; Limosilactobacillus reuteri, Lactobacillus reuter strain HM-102, Table 1, read-out: MIC): > 32 µg/mL; MIC ([10]; Lactobacillus gasseri strain HM-644, Table 7): 2 µg/mL (≈ 1.89 µM); MIC ([10]; Lactobacillus gasseri, Lactobacillus gasser strain HM-644, Table 1, read-out: MIC): 2 µg/mL (≈ 1.89 µM); MIC ([11]; SP.HM49, Veillonella sp. HM-49, Table 1, read-out: MIC): 8 µg/mL (≈ 7.56 µM); MIC ([11]; Veillonella sp. strain HM-49, Table 7): 8 µg/mL (≈ 7.56 µM); MIC ([12]; Table 1): 16 µg/mL (≈ 15.1 µM); MIC ([12]; Table 7): 16 µg/mL (≈ 15.1 µM)
